# Test results published in patent US12077503B2, “Substituted cyclic amides and their use as herbicides” (FMC CORPORATION, priority 2015, dated 2024).
# Key:
# Format in all cases: in vivo
# [1] = tested on: waterhemp (common waterhemp, Amaranthus rudis); experiment: Test C preemergence; details: for Plant response rating, Waterhemp: scale 0 to 100, 0 no effect, 100 complete control
# Outline: (§1)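 Scores of 0 to 100 reflect visual comparison with control plants, where 0 means no effect and 100 complete control, made 13 to 15 d after treatment. Application was preemergence to seeds in loam-sand soil or postemergence to plants 2 to 18 cm tall in peat-based mix, using a surfactant-containing solvent formulation.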
# [2] = tested on: velvetleaf (Abutilon theophrasti); experiment: Test C preemergence; details: for Plant response rating, Velvetleaf: scale 0 to 100, 0 no effect, 100 complete control
# Outline: as §1
# [3] = tested on: oilseed rape (Brassica napus); experiment: Test C preemergence; details: for Plant response rating, Oilseed Rape: scale 0 to 100, 0 no effect, 100 complete control
# Outline: as §1
# [4] = tested on: blackgrass (Alopecurus myosuroides); experiment: Test C preemergence; details: for Plant response rating, Blackgrass: scale 0 to 100, 0 no effect, 100 complete control
# Outline: as §1
# [5] = tested on: ragweed (common ragweed, Ambrosia elatior); experiment: Test C preemergence; details: for Plant response rating, Ragweed: scale 0 to 100, 0 no effect, 100 complete control
# Outline: as §1
# [6] = tested on: foxtail, giant (giant foxtail, Setaria faberii); experiment: Test C preemergence; details: for Plant response rating, Foxtail, Giant: scale 0 to 100, 0 no effect, 100 complete control
# Outline: as §1
# [7] = tested on: corn (Zea mays); experiment: Test C preemergence; details: for Plant response rating, Corn: scale 0 to 100, 0 no effect, 100 complete control
# Outline: as §1
# [8] = tested on: nutsedge, yellow (yellow nutsedge, Cyperus esculentus); experiment: Test C preemergence; details: for Plant response rating, Nutsedge, Yellow: scale 0 to 100, 0 no effect, 100 complete control
# Outline: as §1
# [9] = tested on: ryegrass, Italian (Italian ryegrass, Lolium multiflorum); experiment: Test C preemergence; details: for Plant response rating, Ryegrass, Italian: scale 0 to 100, 0 no effect, 100 complete control
# Outline: as §1
# [10] = tested on: pigweed (Amaranthus retroflexus); experiment: Test C preemergence; details: for Plant response rating, Pigweed: scale 0 to 100, 0 no effect, 100 complete control
# Outline: as §1
# [11] = tested on: Galium (catchweed bedstraw, Galium aparine); experiment: Test C preemergence; details: for Plant response rating, Galium: scale 0 to 100, 0 no effect, 100 complete control
# Outline: as §1
# [12] = tested on: morningglory (Ipomoea coccinea); experiment: Test C preemergence; details: for Plant response rating, Morningglory: scale 0 to 100, 0 no effect, 100 complete control
# Outline: as §1
# [13] = tested on: soybean (Glycine max); experiment: Test C preemergence; details: for Plant response rating, Soybean: scale 0 to 100, 0 no effect, 100 complete control
# Outline: as §1
# [14] = tested on: lambsquarters (Chenopodium album); experiment: Test C preemergence; details: for Plant response rating, Lambsquarters: scale 0 to 100, 0 no effect, 100 complete control
# Outline: as §1
# [15] = tested on: crabgrass, large (large crabgrass, Digitaria sanguinalis); experiment: Test C preemergence; details: for Plant response rating, Crabgrass, Large: scale 0 to 100, 0 no effect, 100 complete control
# Outline: as §1
# [16] = tested on: johnsongrass (Sorghum halepense); experiment: Test C preemergence; details: for Plant response rating, Johnsongrass: scale 0 to 100, 0 no effect, 100 complete control
# Outline: as §1
# [17] = tested on: barnyardgrass (Echinochloa crus-galli); experiment: Test C preemergence; details: for Plant response rating, Barnyardgrass: scale 0 to 100, 0 no effect, 100 complete control
# Outline: as §1
# [18] = tested on: wheat (winter wheat, Triticum aestivum); experiment: Test C preemergence; details: for Plant response rating, Wheat: scale 0 to 100, 0 no effect, 100 complete control
# Outline: as §1
# [19] = tested on: rice (Oryza sativa); experiment: Test C flooded paddy test; details: Flood, 0 is no effect, 100 is complete control
# Outline: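 Scores express visual response relative to untreated controls, 0 meaning no effect and 100 complete control, assessed 13 to 15 d after treatment in the greenhouse. Compound went into water flooded 3 cm above soil around 2-leaf plants.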
# [20] = 31 g ai/ha, 0 is no effect, 100 is complete control
smiles,measurement,setting,value
CN1CC(c2ccc(F)c(C(F)(F)F)c2)C(C(=O)Nc2ccccc2S(C)(=O)=O)C1=O (stereo not shown) [Compound 612],"Plant response rating (scale of 0 to 100), Waterhemp",[1]; [20],75
same,"Plant response rating, Waterhemp",[1]; 62 g ai/ha,85
same,"Plant response rating, Waterhemp",[1]; 125 g ai/ha,90
same,"Plant response rating, Waterhemp",[1]; 250 g ai/ha,95
same,"Plant response rating (scale of 0 to 100), Velvetleaf",[2]; [20],0
same,"Plant response rating, Velvetleaf",[2]; 62 g ai/ha,10
same,"Plant response rating, Velvetleaf",[2]; 125 g ai/ha,30
same,"Plant response rating, Velvetleaf",[2]; 250 g ai/ha,60
same,"Plant response rating (scale of 0 to 100), Oilseed Rape",[3]; [20],30
same,"Plant response rating, Oilseed Rape",[3]; 62 g ai/ha,50
same,"Plant response rating, Oilseed Rape",[3]; 125 g ai/ha,70
same,"Plant response rating, Oilseed Rape",[3]; 250 g ai/ha,90
same,"Plant response rating (scale of 0 to 100), Blackgrass",[4]; [20],70
same,"Plant response rating, Blackgrass",[4]; 62 g ai/ha,90
same,"Plant response rating, Blackgrass",[4]; 125 g ai/ha,90
same,"Plant response rating, Blackgrass",[4]; 250 g ai/ha,95
same,"Plant response rating (scale of 0 to 100), Ragweed",[5]; [20],10
same,"Plant response rating, Ragweed",[5]; 62 g ai/ha,10
same,"Plant response rating, Ragweed",[5]; 125 g ai/ha,55
same,"Plant response rating, Ragweed",[5]; 250 g ai/ha,65
same,"Plant response rating (scale of 0 to 100), Foxtail, Giant",[6]; [20],90
same,"Plant response rating, Foxtail, Giant",[6]; 62 g ai/ha,90
same,"Plant response rating, Foxtail, Giant",[6]; 125 g ai/ha,95
same,"Plant response rating, Foxtail, Giant",[6]; 250 g ai/ha,95
same,"Plant response rating (scale of 0 to 100), Corn",[7]; [20],40
same,"Plant response rating, Corn",[7]; 62 g ai/ha,30
same,"Plant response rating, Corn",[7]; 125 g ai/ha,65
same,"Plant response rating, Corn",[7]; 250 g ai/ha,70
same,"Plant response rating (scale of 0 to 100), Nutsedge, Yellow",[8]; [20],0
same,"Plant response rating, Nutsedge, Yellow",[8]; 62 g ai/ha,0
same,"Plant response rating, Nutsedge, Yellow",[8]; 125 g ai/ha,25
same,"Plant response rating, Nutsedge, Yellow",[8]; 250 g ai/ha,35
same,"Plant response rating (scale of 0 to 100), Ryegrass, Italian",[9]; [20],20
same,"Plant response rating, Ryegrass, Italian",[9]; 62 g ai/ha,40
same,"Plant response rating, Ryegrass, Italian",[9]; 125 g ai/ha,50
same,"Plant response rating, Ryegrass, Italian",[9]; 250 g ai/ha,80
same,"Plant response rating (scale of 0 to 100), Pigweed",[10]; [20],60
same,"Plant response rating, Pigweed",[10]; 62 g ai/ha,80
same,"Plant response rating, Pigweed",[10]; 125 g ai/ha,90
same,"Plant response rating, Pigweed",[10]; 250 g ai/ha,90
same,"Plant response rating (scale of 0 to 100), Galium",[11]; [20],80
same,"Plant response rating, Galium",[11]; 62 g ai/ha,0
same,"Plant response rating, Galium",[11]; 125 g ai/ha,90
same,"Plant response rating, Galium",[11]; 250 g ai/ha,90
same,"Plant response rating (scale of 0 to 100), Morningglory",[12]; [20],0
same,"Plant response rating, Morningglory",[12]; 62 g ai/ha,0
same,"Plant response rating, Morningglory",[12]; 125 g ai/ha,25
same,"Plant response rating, Morningglory",[12]; 250 g ai/ha,55
same,"Plant response rating (scale of 0 to 100), Soybean",[13]; [20],0
same,"Plant response rating, Soybean",[13]; 62 g ai/ha,0
same,"Plant response rating, Soybean",[13]; 125 g ai/ha,10
same,"Plant response rating, Soybean",[13]; 250 g ai/ha,0
same,"Plant response rating (scale of 0 to 100), Lambsquarters",[14]; [20],45
same,"Plant response rating, Lambsquarters",[14]; 62 g ai/ha,45
same,"Plant response rating, Lambsquarters",[14]; 125 g ai/ha,40
same,"Plant response rating, Lambsquarters",[14]; 250 g ai/ha,70
same,"Plant response rating (scale of 0 to 100), Crabgrass, Large",[15]; [20],98
same,"Plant response rating, Crabgrass, Large",[15]; 62 g ai/ha,95
same,"Plant response rating, Crabgrass, Large",[15]; 125 g ai/ha,98
same,"Plant response rating, Crabgrass, Large",[15]; 250 g ai/ha,100
same,"Plant response rating (scale of 0 to 100), Johnsongrass",[16]; [20],40
same,"Plant response rating, Johnsongrass",[16]; 62 g ai/ha,60
same,"Plant response rating, Johnsongrass",[16]; 125 g ai/ha,85
same,"Plant response rating, Johnsongrass",[16]; 250 g ai/ha,90
same,"Plant response rating (scale of 0 to 100), Barnyardgrass",[17]; [20],85
same,"Plant response rating, Barnyardgrass",[17]; 62 g ai/ha,95
same,"Plant response rating, Barnyardgrass",[17]; 125 g ai/ha,95
same,"Plant response rating, Barnyardgrass",[17]; 250 g ai/ha,98
same,"Plant response rating (scale of 0 to 100), Wheat",[18]; [20],20
same,"Plant response rating, Wheat",[18]; 62 g ai/ha,55
same,"Plant response rating, Wheat",[18]; 125 g ai/ha,25
same,"Plant response rating, Wheat",[18]; 250 g ai/ha,90
same,"Plant response rating (scale of 0 to 100), Rice",[19]; 31 g ai/ha,0
same,"Plant response rating (scale of 0 to 100), Rice",[19]; 62 g ai/ha,0
same,"Plant response rating (scale of 0 to 100), Rice",[19]; 125 g ai/ha,0
same,"Plant response rating (scale of 0 to 100), Rice",[19]; 250 g ai/ha,15
